Results as given in patent US6706663B2, “Herbicidal 3-heterocyclic substituted benzisothiazole and benzisoxazole compounds” (Wyeth, priority 2000, dated 2004).

What was measured:
[1] = test system: ABUTH (Abutilon theophrasti); assay: Postemergence herbicidal evaluation; assay type: in vivo, Medic.
In short: (§1)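 Seedlings grown about two weeks in flats, sprayed, then kept under standard greenhouse care. Rated visually 4–5 weeks after treatment on a 0–9 scale (stand, vigour, malformation, size, chlorosis, overall appearance) relative to untreated control; repeat tests averaged.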

[2] = test system: AMBEL (Ambrosia artemisifolia); assay: Postemergence herbicidal evaluation; assay type: in vivo, L.
In short: as §1

[3] = test system: CASOB (Cassia obtusifolia); assay: Postemergence herbicidal evaluation; assay type: in vivo, L.
In short: as §1

[4] = test system: CHEAL (Chenopodium album); assay: Postemergence herbicidal evaluation; assay type: in vivo, L.
In short: as §1

[5] = test system: GALAP (Galium aparine); assay: Postemergence herbicidal evaluation; assay type: in vivo
In short: as §1

[6] = test system: IPOHE (Ipomoea hederacea); assay: Preemergence herbicidal evaluation; assay type: in vivo, (L.) Jacq.; details: rated 4-5 weeks after treatment
[7] = test system: GLXMAW (Soybean, Williams); assay: Preemergence herbicidal evaluation; assay type: in vivo, Glycine max, (L.) Merr. cv Williams; details: rated 4-5 weeks after treatment
[8] = test system: ZEAMX (Corn, Field); assay: Preemergence herbicidal evaluation; assay type: in vivo, Zea mays, L.; details: rated 4-5 weeks after treatment
[9] = test system: CYPIR (Cyperus iria); assay: Flooded paddy, preemergence weed control; assay type: in vivo; details: rated 3-4 weeks after treatment, 0-9 rating scale
In short: (§2)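 Seeds or propagules were planted in the top 0.5 cm of silt loam soil and kept flooded 1.5–3 cm above the surface throughout, then held in the greenhouse. Injury was rated visually on a 0–9 scale against untreated controls, covering stand, vigor, malformation, size and chlorosis.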

[10] = test system: SAGPY (Sagittaria pygmaea); assay: Flooded paddy, preemergence weed control; assay type: in vivo, L.; details: rated 3-4 weeks after treatment, 0-9 rating scale
In short: as §2

[11] = test system: ORYSAT (Rice, Tebonnet); assay: Flooded paddy, post-transplant rice tolerance; assay type: in vivo, Oryza sativa, (L.) Tebonnet; details: flooded paddy, post-transplant rice, rated 3-4 weeks after treatment, 0-9 rating scale
In short: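 Steps: transplant two ten-day-old seedlings into silt loam; flood to 1.5-3 cm above soil; apply herbicide post-transplant; maintain water on greenhouse benches; rate stand, vigor, malformation, size and chlorosis on a 0-9 visual scale versus control.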

| SMILES | Postemergence herbicidal rating, ABUTH ([1]; rate 0.0320 kg/ha) | Postemergence herbicidal rating, ABUTH ([1]; rate 0.0620 kg/ha) | Postemergence herbicidal rating, AMBEL ([2]; rate 0.0320 kg/ha) | Postemergence herbicidal rating, AMBEL ([2]; rate 0.0620 kg/ha) | Postemergence herbicidal rating, CASOB ([3]; rate 0.0320 kg/ha) | Postemergence herbicidal rating, CASOB ([3]; rate 0.0620 kg/ha) | Postemergence herbicidal rating, CHEAL ([4]; rate 0.0320 kg/ha) | Postemergence herbicidal rating, CHEAL ([4]; rate 0.0620 kg/ha) | Postemergence herbicidal rating, GALAP ([5]; rate 0.0320 kg/ha) | Postemergence herbicidal rating, GALAP ([5]; rate 0.0620 kg/ha) | IPOHE preemergence herbicidal rating ([6]; Rate 0.1250 kg/ha) | IPOHE preemergence herbicidal rating ([6]; Rate 0.2500 kg/ha) | GLXMAW preemergence herbicidal rating ([7]; Rate 0.1250 kg/ha) | GLXMAW preemergence herbicidal rating ([7]; Rate 0.2500 kg/ha) | ZEAMX preemergence herbicidal rating ([8]; Rate 0.1250 kg/ha) | ZEAMX preemergence herbicidal rating ([8]; Rate 0.2500 kg/ha) | herbicidal rating, CYPIR ([9]; rate 0.0320 kg/ha) | herbicidal rating, CYPIR ([9]; rate 0.1250 kg/ha) | herbicidal rating, SAGPY ([10]; rate 0.0320 kg/ha) | herbicidal rating, SAGPY ([10]; rate 0.1250 kg/ha) | other results |
| --- | --- | --- | --- | --- | --- | --- | --- | --- | --- | --- | --- | --- | --- | --- | --- | --- | --- | --- | --- | --- | --- |
| CC1CCOC(c2nsc3ccc(-n4c(=O)cc(C(F)(F)F)n(C)c4=O)cc23)O1 (centres unmarked) [Compound 37, 1-methyl-3-[3-(4-methyl-m-dioxan-2-yl)-1,2-benzisothiazol-5-yl]-6-(trifluoromethyl)uracil] | 9.0 | 9.0 | 9.0 | 9.0 | 4.0 | 5.0 | 5.0 | 9.0 | 4.0 | 4.0 | 8.0 | 7.0 | 9.0 | 9.0 | 9.0 | 9.0 | 9.0 | 9.0 | 7.0 | 9.0 | IPOHE preemergence herbicidal rating ([6]; Rate 0.0620 kg/ha): 7.0; GLXMAW preemergence herbicidal rating ([7]; Rate 0.0620 kg/ha): 9.0; ZEAMX preemergence herbicidal rating ([8]; Rate 0.0620 kg/ha): 9.0; herbicidal rating, CYPIR ([9]; rate 0.0080 kg/ha): 0.0; herbicidal rating, SAGPY ([10]; rate 0.0080 kg/ha): 0.0; herbicidal rating, ORYSAT (rice tolerance) ([11]; rate 0.0080 kg/ha): 5.0; herbicidal rating, ORYSAT (rice tolerance) ([11]; rate 0.0320 kg/ha): 8.5; herbicidal rating, ORYSAT (rice tolerance) ([11]; rate 0.1250 kg/ha): 9.0 |
| C#CCOC(=O)COc1ccsc1-c1nsc2ccc(-n3c(=O)cc(C(F)(F)F)n(C)c3=O)cc12 [Compound 39, 2-propynyl [[2-[5-[3,6-dihydro-3-methyl-2,6-dioxo-4-(trifluoromethyl)-1(2H)-pyrimidinyl]-1,2-benzisothiazol-3-yl]-3-thienyl]oxy]acetate] | 2.0 | 9.0 | 3.0 | 3.0 | 0.0 | 0.0 | 0.0 | 4.0 | 0.0 | 1.0 | 0.0 | 1.0 | 1.0 | 1.0 | 0.0 | 1.0 | 5.0 | 5.0 | 0.0 | 3.0 | Preemergence herbicidal rating IPOHE ([6]; Rate 0.0620 kg/ha): 0.0; Preemergence herbicidal rating GLXMAW ([7]; Rate 0.0620 kg/ha): 0.0; Preemergence herbicidal rating ZEAMX ([8]; Rate 0.0620 kg/ha): 0.0; herbicidal rating, ORYSAT (rice tolerance) ([11]; rate 0.0320 kg/ha): 0.0; herbicidal rating, ORYSAT (rice tolerance) ([11]; rate 0.1250 kg/ha): 4.0 |
